The source of these data is US9464064B2, “HCV helicase inhibitors and methods of use thereof” (University of Kansas, priority 2011, dated 2016).

For one data set, the target named is scNS4A-NS3 (Hepatitis C virus genotype 1b, UniProt Q9WMX2). Put plainly: NS3 protease assay (ENZOLYTE 520), full-length. Also on record: other: 100 μM, highest concentration tested; other: versus P4; There is also a His tag. It is filed as biochemical, hepatitis C virus genotype 1b(con1). As to the method: All oligonucleotides were purchased from Integrated DNA Technologies (IDT, Coralville, Iowa). Primuline derivatives were synthesized and purified as described herein. Three different NS3 proteins were used in this study. Two were truncated C-terminally His-tagged NS3 proteins lacking the N-terminal protease, called NS3h, the third was a full-length NS3 with the portion of NS4A needed for protease activation fused to its N-terminus, called scNS4A-NS3 (Howe, et al. (1999) Protein Sci. 8:1332-41), and the fourth was a 23 kDa scNS4A-NS3 protease fragment lacking the helicase domains, called scNS4A-NS3p (Protein One, Rockville, Md.). NS3h was expressed from two different HCV strains. NS3h_1b(con1) was from the con1 strain of genotype 1b (GENBANK accession AB114136), and NS3h_2a(JFH1) was from the JFH1 strain of HCV genotype 2a (GENBANK accession AJ238799). […] His-tagged recombinant NS3h_1b(con1), NS3h_2a(JFH1), and scNS4A-NS3 (also from genotype 1b(con1)) were expressed, and purified as previously described (Frick, et al. (2010) supra; Lam, et al. (2003) J. Virol. 77:3950-3961). […]
Chain of scNS4A-NS3 (Q9WMX2 1027-1657): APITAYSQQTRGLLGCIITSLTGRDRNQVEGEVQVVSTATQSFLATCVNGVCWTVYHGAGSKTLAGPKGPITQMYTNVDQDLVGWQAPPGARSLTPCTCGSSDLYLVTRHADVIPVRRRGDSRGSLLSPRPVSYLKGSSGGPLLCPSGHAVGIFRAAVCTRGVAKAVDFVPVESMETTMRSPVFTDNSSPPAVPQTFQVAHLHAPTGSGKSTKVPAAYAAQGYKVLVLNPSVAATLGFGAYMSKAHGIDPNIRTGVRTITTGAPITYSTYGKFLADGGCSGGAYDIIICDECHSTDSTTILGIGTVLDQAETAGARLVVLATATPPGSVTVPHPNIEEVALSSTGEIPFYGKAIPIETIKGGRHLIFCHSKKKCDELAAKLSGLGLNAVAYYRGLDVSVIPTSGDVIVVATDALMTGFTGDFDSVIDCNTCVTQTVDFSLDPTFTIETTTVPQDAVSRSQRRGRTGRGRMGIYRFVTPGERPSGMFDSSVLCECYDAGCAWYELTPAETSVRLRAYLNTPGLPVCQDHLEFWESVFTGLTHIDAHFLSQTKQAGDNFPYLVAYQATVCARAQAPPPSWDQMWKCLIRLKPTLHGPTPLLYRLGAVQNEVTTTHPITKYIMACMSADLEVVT
All NS3 protease assays were carried out using the 5-Carboxyfluorescein-labeled substrate from the AnaSpec. […] Assays were carried out in a total volume of 20 μl in black 384-well plates with fluorescence at 520 nm measured using a BMG FLUOstar Omega fluorescence spectrophotometer. […]

Data set [1] in a line: Hepatic microsome stability, human. It is filed as in vitro ADME. The following applies: percent remaining at 1 hour. As to the method:
Metabolic stability was assessed in the presence of human liver microsomes (XenoTech) and mouse liver mirosomes (XenoTech). All liquid was dispensed and transfer steps were performed with the FREEDOM EVO automated liquid handler (Tecan US). NADPH, a required cofactor for CYP450 metabolism, was provided by the NADPH Regenerating System, Solutions A (BD Biosciences) and B (BD Biosciences). Compound stock solutions were initially prepared in 100% DMSO and subsequently diluted in acetonitrile for the assay. The pH of the reactions was kept at ˜7.4 with potassium phosphate buffer (BD Biosciences). The reactions were started after adding NADPH to the reaction plate containing microsomes and compounds and time 0 minutes aliquots were promptly collected and mixed with ice cold acetonitrile (spiked with internal standards) to quench the reactions. The remainder of the reaction volume was incubated at 37° C. with shaking. […] The amount of compound in the supernatant was determined by LC/MS/MS (Applied Biosystems, Sciex API4000 Q-TRAP) and the percent of parent compound remaining after 60 minutes was calculated by the following formula: % parent compound remaining=[(concentration at 60 minutes/concentration at 0 minutes)×100]. […] Results reported are the mean of each reaction triplicate, normalized to the internal standard, and expressed as a percent compound remaining after the incubation time. […]

In another data set the test system is HCV replicon RNA. Put plainly: HCV RNA RT-qPCR assay in replicon cells. It is filed as cell-based, hepatitis C virus. The settings on record: qRT-PCR, 10 days of treatment.
In data set [2] the test system is NS3 protease in Huh7.5/HCV Con1sg Rluc cells. Put plainly: IPS-1 (MAVS)-based reporter cell-based protease assay. Also on record: species or system hepatitis C virus. The following applies: 10 μM, 72 hours.
Experimental: An IPS-1 (also known as MAVS)-based reporter assay was used for cell-based protease assay. […] RFP-NLS-IPS pseudoparticles were transduced into Huh7.5/HCV Con1sg Rluc cells in a 24-well plate containing cover slips and compounds were added to the cells after 6 hours at a 10 μM concentration and after 72 hours from the first addition, cells were fixed in 1% PFA, washed twice with PBS, mounted on glass slides and microscopic analyses were done.
Microscopy was performed with a Nikon Ti-E inverted fluorescence microscope using a 20× and 40×/NA 1.4 objective. Compounds were imaged using DAPI filter 340/40 band-pass excitation and a 435/50 band pass emission filter. For ALEXA 546 and RFP-NLS-IPS, a 528/25 nm band pass excitation filter and 590/60 nm band-pass emission filter were used. Image acquisition was performed with a Q imaging ROLERA camera and the NIS elements basic research imaging software (Nikon). […]
The assay selected (Jones, et al. (2010) supra) uses a fusion protein made from a NS3 protease cellular target called IPS-1 (also known as MAVS) fused to a red fluorescent protein (RFP) and a nuclear localization signal (NLS). Lentivirus expressing the RFP-NLS-IPS-1 was used to transduce the above Rluc subgenomic HCV replicon cell line, and the effect of compounds on the location of RFP-NLS was examined using fluorescence microscopy.
The target of the next data set is T1, NS3h_1b(con1) (Hepatitis C virus genotype 1b, UniProt Q9WMX2).
T1 construct: truncated C-terminally His-tagged NS3 proteins lacking the N-terminal protease, called NS3h; His-tag (C); made in house
T1 sequence (Q9WMX2 1192-1657): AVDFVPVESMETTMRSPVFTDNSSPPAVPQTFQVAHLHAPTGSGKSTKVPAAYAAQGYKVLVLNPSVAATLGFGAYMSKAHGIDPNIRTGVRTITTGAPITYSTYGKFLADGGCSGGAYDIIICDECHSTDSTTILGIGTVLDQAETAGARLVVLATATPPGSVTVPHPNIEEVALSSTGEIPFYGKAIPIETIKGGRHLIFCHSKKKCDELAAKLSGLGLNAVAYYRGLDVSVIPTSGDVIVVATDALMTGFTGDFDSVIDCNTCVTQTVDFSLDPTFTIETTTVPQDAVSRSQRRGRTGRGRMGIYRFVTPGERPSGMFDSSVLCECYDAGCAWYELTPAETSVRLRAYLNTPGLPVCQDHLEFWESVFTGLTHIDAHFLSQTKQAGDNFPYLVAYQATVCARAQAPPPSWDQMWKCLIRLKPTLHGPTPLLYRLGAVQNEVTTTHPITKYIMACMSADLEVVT
Nature of the data set: ATP hydrolysis assay (malachite green). It is filed as biochemical. As to the method: A modified “malachite green” assay (Lanzetta, et al. (1979) Anal. Biochem. 100:95-97) was used to measure ATP hydrolysis. Fifty μL reactions contained 25 mM MOPS pH 6.5, 5 mM MgCl2, 2 mM ATP, 5 μg/mL BSA, 0.01% (v/v) TWEEN 20, 0.05 mM DTT, and poly(U) RNA (Saint Louis, Mo.) as indicated. Reactions were initiated by adding NS3h_1b(con1). Reactions were incubated for 15 minutes at 37° C. then stopped by mixing 40 μL of the reaction into 200 μL of the malachite green reagent (3 volumes 0.045% (w/v) malachite green, 1 volume 4.2% ammonium molybdate in 4N HCl, 0.05 volume of 20% TWEEN 20). […] Absorbance at 630 nm was proportional to the concentration of phosphate produced; free phosphate produced was measured against a standard curve.

Experimental for HCV replicon RNA: For the HCV RNA reverse transciptase quantitative PCR (RT-qPCR) assay, cells were treated, washed 2 times with PBS, harvested, and collected by centrifugation (1000 g) for 5 minutes at 4° C. Total RNA was then extracted using the TRIZOL kit (Invitrogen) and suspended in 30 μL of nuclease-free water. RNA concentration was determined from A260. RT-qPCR was performed using TAQMAN probes, 1 μg total RNA and the QSCRIPT One-step Fast qRT-PCR kit (Quanta Biosciences, Gaithersburg, Md.). Reverse transcription was carried out at 50° C. for 20 minutes followed by one cycle at 95° C. for 5 minutes and 40 cycles at 95° C. for 15 seconds and 60° C. for 1 minute. […] The amount of HCV RNA in each sample was determined by first calculating the ΔCT of each sample, which was obtained by subtracting the threshold cycle (CT) obtained with the rRNA primers obtained from that of the CT with the HCV primers. ΔΔCT values were obtained by subtracting ΔCT values obtained in the presence of compound from ΔCT obtained with cells treated with DMSO only. The relative changes in HCV RNA levels were then calculated by assuming that each CT difference reflected a two-fold difference in RNA level (i.e., Expression=2^−ΔΔCT).

For `Cc1ccc2nc(-c3ccc4nc(-c5ccc(NC(=O)c6cccc(Cl)c6)cc5)sc4c3)sc2c1S(=O)(=O)O` [Compound 17, 2′-(4-(3-chlorobenzamido)phenyl)-6-methyl-[2,6′-bibenzo[d]thiazole]-7-sulfonic acid], the “times less potent protease inhibitor than compound P4” value on scNS4A-NS3 (versus P4) stood at 50 times. Further, the “Hepatic Microsome Stability Human” value in data set [1] is listed as 83.57%.

For `Cc1ccc2nc(-c3ccc4nc(-c5ccc(NC(=O)c6cc(C(F)(F)F)cc(C(F)(F)F)c6)cc5)sc4c3)sc2c1S(=O)(=O)O` [Compound 24, 2′-(4-(3,5-bis(trifluoromethyl)benzamido)phenyl)-6-methyl-[2,6′-bibenzo[d]thiazole]-7-sulfonic acid], the “decrease of HCV replicon RNA content” value with HCV replicon RNA was “about 13 fold”. Also, in data set [2], the “nuclear translocation of RFP-NLS (cellular NS3 protease activity)” value was “did not inhibit nuclear translocation”.

On to `Cc1ccc2nc(-c3ccc4nc(-c5ccc(N)cc5)sc4c3)sc2c1S(=O)(=O)O` [Compound P2a, 2′-(4-aminophenyl)-6-methyl-[2,6′-bibenzo[d]thiazole]-7-sulfonic acid], for which the inhibition at 100 µM at scNS4A-NS3 (read-out: inhibition of protease) was at most 50%.

`Cc1ccc2nc(-c3ccc4nc(-c5ccc6nc(-c7ccc(N)cc7)sc6c5)sc4c3)sc2c1S(=O)(=O)O` [Compound P3, 2″-(4-aminophenyl)-6-methyl-[2,6′:2′,6″-terbenzo[d]thiazole]-7-sulfonic acid] displayed a 50% inhibitory concentration (IC50) against NS3h_1b(con1) of 15 ± 4 µM.

Take `Cc1ccc2nc(-c3ccc4nc(-c5ccc6nc(-c7ccc8nc(-c9ccc(N)cc9)sc8c7)sc6c5)sc4c3)sc2c1S(=O)(=O)O` [Compound P4, 2′″-(4-aminophenyl)-6-methyl-[2,6′:2″,6′″-quaterbenzo[d]thiazole]-7-sulfonic acid]: at NS3h_1b(con1), the IC50 worked out at 5 ± 3 µM. At NS3h_1b(con1) (presence and absence of RNA), the “effect on NS3 ATP hydrolysis” value was “inhibited ATP hydrolysis both in the presence and absence of RNA”.

What is called inhibition is the share of the control response that was lost under treatment. Broadly, the IC50 is the point on the concentration scale where inhibition reaches its midpoint. Lower therefore signals higher potency.
